# In patent publication US20220183976A1, “COMPOSITIONS OF DISPERSED PHASE FOR PREPARATION OF APIXABAN-LOADED MICROSPHERES AND BIOCOMPATIBLE POLYMER-BASED APIXABAN-LOADED MICROSPHERES PREPARED THEREFROM” (HLB PHARMACEUTICAL CO., LTD., priority 2019, published 2022):
# Assay: Dissolution of Apixaban in non-halogen and halogen organic solvents
# Format: physicochemical
# Method: 25 mg of Apixaban was added to 1 mL of each of ethyl acetate, ethyl formate, methyl propionate, and ethanol and stirred. As a result, it was confirmed that Apixaban was not dissolved in non-halogen organic solvents (FIG. 1).
# 25 mg of Apixaban was dissolved in 1 mL of dichloromethane, and the mixture was photographed after 12 hours.
smiles,measurement,setting,value
COc1ccc(-n2nc(C(N)=O)c3c2C(=O)N(c2ccc(N4CCCCC4=O)cc2)CC3)cc1 [Apixaban],Dissolution of Apixaban in halogen organic solvent,"25 mg in 1 mL of dichloromethane, photographed after 12 hours","completely dissolved in the beginning, but after a certain time, crystals were formed"
same,Dissolution of Apixaban in non-halogen organic solvents,"25 mg in 1 mL of each of ethyl acetate, ethyl formate, methyl propionate, ethanol, stirred",not dissolved
same,Apixaban concentration in dichloromethane at which recrystallization occurs,dichloromethane,≥ 10 mg/mL
